Reference: article PMC6858927 (Investigational new drugs, 2019)
Like-named read-outs stand apart in the source and are kept apart here.

[1] = Cohort B Dose 2: 400mg, Decitabine (n=2), grade 3+
[2] = Cohort B dose 1: 200mg, Decitabine (n=6), Total
[3] = Cohort B dose 1: 200mg, Decitabine (n=6), grade 1&2
[4] = Cohort B dose 1: 200mg, Decitabine (n=6), grade 3+

C1=C/COCc2cc(ccc2OCCN2CCCC2)Nc2nccc(n2)-c2cccc(c2)COC/1 [Pacritinib, 11-(2-pyrrolidin-1-yl-ethoxy)-14,19-dioxa-5,7,26-triaza-tetracyclo[19.3.1.1(2,6). 1(8,12)]heptacosa-1(25),2(26),3,5,8,10,12(27),16,21,23-decaene]
1 (7.7): ELECTROCARDIOGRAM QT CORRECTED INTERVAL PROLONGED, patients (%) (human, in vivo) | RASH MACULO-PAPULAR, patients (%) (human, in vivo)
7 (53.8): LYMPHOCYTE COUNT DECREASED, patients (%) (Overall (n=13), Total) | NAUSEA, patients (%) (Overall (n=13), Total)
1 (16.7): ACTIVATED PARTIAL THROMBOPLASTIN TIME PROLONGED, patients (%) [2] | CONSTIPATION, patients (%) [2] | DIARRHEA, patients (%) [2] | EDEMA LIMBS, patients (%) [2] | FEBRILE NEUTROPENIA, patients (%) [2] | HYPERGLYCEMIA, patients (%) [2] | HYPOALBUMINEMIA, patients (%) [2] | HYPOPHOSPHATEMIA, patients (%) [2] | LUNG INFECTION, patients (%) [2] | PLEURAL EFFUSION, patients (%) [2] | RASH, patients (%) [2] | RESPIRATORY FAILURE, patients (%) [2] | ACTIVATED PARTIAL THROMBOPLASTIN TIME PROLONGED, patients (%) [3] | ANEMIA, patients (%) [3] | CONSTIPATION, patients (%) [3] | DIARRHEA, patients (%) [3] | EDEMA LIMBS, patients (%) [3] | ELECTROCARDIOGRAM QT CORRECTED INTERVAL PROLONGED, patients (%) [3] | HYPERGLYCEMIA, patients (%) [3] | HYPOALBUMINEMIA, patients (%) [3] | LYMPHOCYTE COUNT DECREASED, patients (%) [3] | MUCOSITIS ORAL, patients (%) [3] | PLEURAL EFFUSION, patients (%) [3] | RASH, patients (%) [3] | ELECTROCARDIOGRAM QT CORRECTED INTERVAL PROLONGED, patients (%) [4] | FEBRILE NEUTROPENIA, patients (%) [4] | HYPOPHOSPHATEMIA, patients (%) [4] | LUNG INFECTION, patients (%) [4] | MUCOSITIS ORAL, patients (%) [4] | RESPIRATORY FAILURE, patients (%) [4]
6 (100): ANEMIA, patients (%) [2]
9 (69.2): ANEMIA, patients (%) (human, in vivo)
3 (50): LYMPHOCYTE COUNT DECREASED, patients (%) [2] | NAUSEA, patients (%) [2] | NEUTROPHIL COUNT DECREASED, patients (%) [2] | WHITE BLOOD CELL DECREASED, patients (%) [2] | NAUSEA, patients (%) [3] | NEUTROPHIL COUNT DECREASED, patients (%) [4] | WHITE BLOOD CELL DECREASED, patients (%) [4]
2 (15.4): ACTIVATED PARTIAL THROMBOPLASTIN TIME PROLONGED, patients (%) (Overall (n=13), Total) | ANOREXIA, patients (%) (Overall (n=13), Total) | CONSTIPATION, patients (%) (Overall (n=13), Total) | DYSPNEA, patients (%) (Overall (n=13), Total) | EDEMA LIMBS, patients (%) (Overall (n=13), Total) | LUNG INFECTION, patients (%) (Overall (n=13), Total) | RASH MACULO-PAPULAR, patients (%) (Overall (n=13), Total) | ACTIVATED PARTIAL THROMBOPLASTIN TIME PROLONGED, patients (%) (Overall (n=13), grade 1&2) | ANEMIA, patients (%) (Overall (n=13), grade 1&2) | ANOREXIA, patients (%) (Overall (n=13), grade 1&2) | CONSTIPATION, patients (%) (Overall (n=13), grade 1&2) | DYSPNEA, patients (%) (Overall (n=13), grade 1&2) | EDEMA LIMBS, patients (%) (Overall (n=13), grade 1&2) | LUNG INFECTION, patients (%) (Overall (n=13), grade 3+)
0: HYPERTENSION, patients (%) [1] | HYPOALBUMINEMIA, patients (%) [1] | HYPOPHOSPHATEMIA, patients (%) [1] | HYPOXIA, patients (%) [1] | LUNG INFECTION, patients (%) [1] | MUCOSITIS ORAL, patients (%) [1] | PLEURAL EFFUSION, patients (%) [1] | PRURITUS, patients (%) [1] | RASH MACULO-PAPULAR, patients (%) [1] | RASH, patients (%) [1] | RESPIRATORY FAILURE, patients (%) [1] | VOMITING, patients (%) [1] | DYSPNEA, patients (%) [2] | HYPERTENSION, patients (%) [2] | HYPOXIA, patients (%) [2] | PRURITUS, patients (%) [2] | RASH MACULO-PAPULAR, patients (%) [2] | DYSPNEA, patients (%) [3] | FEBRILE NEUTROPENIA, patients (%) [3] | HYPERTENSION, patients (%) [3] | HYPOPHOSPHATEMIA, patients (%) [3] | HYPOXIA, patients (%) [3] | LUNG INFECTION, patients (%) [3] | NEUTROPHIL COUNT DECREASED, patients (%) [3] | PLATELET COUNT DECREASED, patients (%) [3] | PRURITUS, patients (%) [3] | RASH MACULO-PAPULAR, patients (%) [3] | RESPIRATORY FAILURE, patients (%) [3] | WHITE BLOOD CELL DECREASED, patients (%) [3] | ACTIVATED PARTIAL THROMBOPLASTIN TIME PROLONGED, patients (%) [4] | ANOREXIA, patients (%) [4] | CONSTIPATION, patients (%) [4] | DIARRHEA, patients (%) [4] | DYSPNEA, patients (%) [4] | EDEMA LIMBS, patients (%) [4] | FATIGUE, patients (%) [4] | HYPERGLYCEMIA, patients (%) [4] | HYPERTENSION, patients (%) [4] | HYPOALBUMINEMIA, patients (%) [4] | HYPOKALEMIA, patients (%) [4] | HYPOXIA, patients (%) [4] | NAUSEA, patients (%) [4] | PLEURAL EFFUSION, patients (%) [4] | PRURITUS, patients (%) [4] | RASH MACULO-PAPULAR, patients (%) [4] | RASH, patients (%) [4] | VOMITING, patients (%) [4] | LUNG INFECTION, patients (%) (Overall (n=13), grade 1&2) | ACTIVATED PARTIAL THROMBOPLASTIN TIME PROLONGED, patients (%) (human, in vivo) | ANOREXIA, patients (%) (human, in vivo) | CONSTIPATION, patients (%) (human, in vivo) | DIARRHEA, patients (%) (human, in vivo) | DYSPNEA, patients (%) (human, in vivo) | EDEMA LIMBS, patients (%) (human, in vivo) | FATIGUE, patients (%) (human, in vivo)
11 (84.6): ANEMIA, patients (%) (Overall (n=13), Total)
3 (23.1): HYPERTENSION, patients (%) (Overall (n=13), Total)
6 (46.2): ELECTROCARDIOGRAM QT CORRECTED INTERVAL PROLONGED, patients (%) (Overall (n=13), Total)
1 (50): HYPOKALEMIA, patients (%) [1] | LYMPHOCYTE COUNT DECREASED, patients (%) [1] | NAUSEA, patients (%) [1] | NEUTROPHIL COUNT DECREASED, patients (%) [1] | PLATELET COUNT DECREASED, patients (%) [1] | WHITE BLOOD CELL DECREASED, patients (%) [1]
4 (30.8): DIARRHEA, patients (%) (Overall (n=13), Total) | HYPOKALEMIA, patients (%) (Overall (n=13), Total) | MUCOSITIS ORAL, patients (%) (Overall (n=13), Total) | DIARRHEA, patients (%) (Overall (n=13), grade 1&2)
2 (33.3): ANOREXIA, patients (%) [2] | ELECTROCARDIOGRAM QT CORRECTED INTERVAL PROLONGED, patients (%) [2] | FATIGUE, patients (%) [2] | HYPOKALEMIA, patients (%) [2] | MUCOSITIS ORAL, patients (%) [2] | VOMITING, patients (%) [2] | ANOREXIA, patients (%) [3] | FATIGUE, patients (%) [3] | HYPOKALEMIA, patients (%) [3] | VOMITING, patients (%) [3] | LYMPHOCYTE COUNT DECREASED, patients (%) [4]
5 (83.3): PLATELET COUNT DECREASED, patients (%) [2] | ANEMIA, patients (%) [4] | PLATELET COUNT DECREASED, patients (%) [4]
5 (38.5): FATIGUE, patients (%) (Overall (n=13), Total) | ELECTROCARDIOGRAM QT CORRECTED INTERVAL PROLONGED, patients (%) (Overall (n=13), grade 1&2) | FATIGUE, patients (%) (Overall (n=13), grade 1&2)
